Laboratory results published in PMC9818988, “SR Protein Kinase 1 Inhibition by TAF15” (Cells, 2022).
Blank lines part the entries; values can stand above or below the molecule they belong to.

Tests used:
SRPK1 [1] = assay: Pull-down of SRPK1 from HeLa cell extracts with immobilized GST-TAF15 fusion proteins; assay type: binding; conditions: 150 mM NaCl, 1% Triton X-100, 60 min, room temperature; Western blot with anti-SRPK1
Description: Incubation of GST, GST-TAF15, GST-TAF15(1–320), and GST-TAF15-RGG (2–3 μg each) immobilized on glutathione-Sepharose beads with HeLa cell extracts (∼200 μg of total protein) was performed in 50 mm Tris-HCl, pH 7.5, 150 mm NaCl, 1% Triton X-100, and 0.5 mm PMSF (cell extraction buffer) in a total volume of 0.5 mL for 60 min at room temperature. Bound SRPK1 was analyzed on 10% SDS-polyacrylamide gels and detected by Western blotting using the anti-SRPK1 monoclonal antibody (611072, BD Biosciences, San Jose, CA, USA), an alkaline phosphatase-coupled goat anti-mouse secondary antibody, and a 5-bromo-4-chloro-3-indolyl phosphate/nitro blue tetrazolium substrate.

SRPK1 [2] = assay: In vitro kinase inhibition assay: phosphorylation of GST-LBRNt(62–92) by GST-SRPK1; assay type: biochemical; conditions: for Effect of TAF15 fusion proteins on SRPK1 activity (phosphorylation of GST-LBRNt(62–92)): 1, 2, 4, 6, 8 μg GST-TAF15, 1.5, 3, 6, 10, 15 μg GST-TAF15-RGG, 2, 4, 8, 12, 16 μg GST-TAF15(1-320), 25 μL, [γ-32P]ATP, Cherenkof counting, two independent experiments; for Effect of TAF15 fusion proteins on SRPK1 activity (phosphorylation of GST-LBRNt(62–92)) / Inhibition of SRPK1 activity (phosphorylation of GST-LBRNt(62–92) by GST-SRPK1): 30 °C, 30 min; for Inhibition of SRPK1 activity (phosphorylation of GST-LBRNt(62–92) by GST-SRPK1): peptide 0.1, 0.2, 0.3, 0.4 and 0.5 mM, 25 μM ATP, autoradiography, bands counted, means ± SE of two independent experiments (Figure 8); for Relative inhibitory activity on SRPK1 among the three RGG peptides (proportional to number of RGG repeats): peptide 0.1–0.5 mM, substrate GST-LBRNt(62–92), two independent experiments (Figure 8B)
Description: (§1) Kinase assays were carried out at 30 °C in a total volume of 25 μL containing 12 mM Hepes pH 7.5, 10 mM MgCl2, 25 μM ATP, 1–3 μg of the appropriate substrate (GST-LBRNt(62–92) or GST-TAF15 or His-TAF15), and 1–2 μg GST-SRPK1. For the inhibition assays, GST-SRPK1 was incubated with GST-LBRNt(62–92) under the assay conditions in the presence of increasing concentrations of GST-TAF15, GST-TAF15-RGG, and GST-TAF15(1–320) or Nucl, SAFA, and A2B1 peptides, as indicated. Nucl ([…]), SAFA ([…]) and A2B1 ([…]) peptides, comprising the RGG repeats of nucleolin, HNRPU (SAFA), and HNRNPA2B1, respectively, were provided by GeneCust, Boynes, France. The samples were incubated for 30 min, and the reaction was stopped by adding 6 μL of 5 × SDS sample buffer and heating at 95 °C for 3 min. Phosphoproteins were detected via autoradiography using Super RX (a Fuji medical X-ray film), and signals were quantified by excising the radioactive bands from the gel and scintillation counting. p-values were determined using a two-tailed, unpaired student’s t-test.

SRPK1 [3] = assay: In vitro phosphorylation of TAF15 as substrate by GST-SRPK1; assay type: biochemical; conditions: bacterially produced GST-SRPK1; GST-LBRNt(62–92) as positive substrate; autoradiography
Description: as §1

SRPK1 [4] = assay: Pull-down of His-TAF15 with GST-SRPK1 immobilized on glutathione-Sepharose beads; assay type: binding; conditions: 60 min, room temperature, Coomassie blue staining
Description: Incubation of GST and GST-SRPK1 (2–3 μg each) immobilized on glutathione-Sepharose beads with His-TAF15 (2 μg) was performed in 20 mm Hepes, pH 7.5, 50 mM NaCl, and 1% Triton X-100 in a total volume of 0.5 mL. Similar incubations were also performed in the presence of 150 and 300 mM NaCl to test the stringency of the interaction. The incubations were carried out for 60 min at room temperature. The beads were harvested, washed three times with 500 μL of binding buffer, and resuspended in 25 μL of SDS sample buffer. Bound His-TAF15 was analyzed on 10% SDS-polyacrylamide gels and detected by Coomassie Blue staining.

Molecule: GST-TAF15-RGG: C-terminal RGG domain (aa 319–589) of TAF15 as GST-fusion protein
- Binding of SRPK1 from HeLa cell extracts to immobilized GST fusion protein (SRPK1 [1]): could bind to SRPK1
- Effect of TAF15 fusion proteins on SRPK1 activity (phosphorylation of GST-LBRNt(62–92)) (SRPK1 [2]): inhibited SRPK1 as potently as full-length TAF15

Molecule: GST-TAF15: full-length TAF15 as GST-fusion protein produced in bacteria
- Phosphorylation of TAF15 by SRPK1 (substrate test) (SRPK1 [3]): did not modify
- Effect of TAF15 fusion proteins on SRPK1 activity (phosphorylation of GST-LBRNt(62–92)) (SRPK1 [2]): inhibited the phosphorylation of GST-LBRNt(62–92) in a dose-responsive manner

- Binding of TAF15 to GST-SRPK1 in pull-down (SRPK1 [4]; increased salt, 0.3 M NaCl): reduced binding
- Binding of TAF15 to GST-SRPK1 in pull-down (SRPK1 [4]; physiological ionic strength, 50–150 mM NaCl): binds SRPK1
Molecule: His-TAF15: full-length TAF15 with an 8xHis tag fused to its N-terminus
- Phosphorylation of TAF15 by SRPK1 (substrate test) (SRPK1 [3]): unable to phosphorylate

- Inhibition of SRPK1 activity (phosphorylation of GST-LBRNt(62–92) by GST-SRPK1) (SRPK1 [2]): could inhibit SRPK1
Molecule: RGGGHRGRGGFNMRGGNFRGGAPGNRGGY [SAFA, peptide comprising the RGG repeats of HNRPU (SAFA), provided by GeneCust]

- Inhibition of SRPK1 activity (phosphorylation of GST-LBRNt(62–92) by GST-SRPK1) (SRPK1 [2]): could inhibit SRPK1
- Relative inhibitory activity on SRPK1 among the three RGG peptides (proportional to number of RGG repeats) (SRPK1 [2]): most potent inhibitory activity
Molecule: RGGGRGGFGGRGGGRGGRGGFGGRGRGGFGGRGGFRGGRGG [Nucl, peptide comprising the RGG repeats of nucleolin, provided by GeneCust]

- Inhibition of SRPK1 activity (phosphorylation of GST-LBRNt(62–92) by GST-SRPK1) (SRPK1 [2]): could inhibit SRPK1
- Relative inhibitory activity on SRPK1 among the three RGG peptides (proportional to number of RGG repeats) (SRPK1 [2]): weaker
Molecule: RGGNFGFGDSRGGGGNFGPGPGSNFRGG [A2B1, peptide comprising the RGG repeats of HNRNPA2B1, provided by GeneCust]

- Effect of TAF15 fusion proteins on SRPK1 activity (phosphorylation of GST-LBRNt(62–92)) (SRPK1 [2]): did not affect the kinase activity
- Effect of TAF15 fusion proteins on SRPK1 activity (phosphorylation of GST-LBRNt(62–92)) (SRPK1 [2]; listed as GST-TAF15(1-320)): has no effect on SRPK1 activity
B1: GST-TAF15(1–320): N-terminal part (aa 1–320) of TAF15 as GST-fusion protein (protein)
chain: MSDSGSYGQSGGEQQSYSTYGNPGSQGYGQASQSYSGYGQTTDSSYGQNYSGYSSYGQSYSQSYGGYENQKQSSYSQQPYNNQGQQQNMESSGSQGGRAPSYDQPDYGQQDSYDQQSGYDQHQGSYDEQSNYDQQHDSYSQNQQSYHSQRENYSHHTQDDRRDVSRYGEDNRGYGGSQGGGRGRGGYDKDGRGPMTGSSGGDRGGFKNFGGHRDYGPRTDADSESDNSDNNTIFVQGLGEGVSTDQVGEFFKQIGIIKTNKKTGKPMINLYTDKDTGKPKGEATVSFDDPPSAKAAIDWFDGKEFHGNIIKVSFATRRPE
modifications: left off: GST, end not stated, kept
notes: N-terminal part (aa 1–320) of TAF15 as GST-fusion protein
- Binding of SRPK1 from HeLa cell extracts to immobilized GST fusion protein (SRPK1 [1]): no such interaction
